Results: ChEMBL document CHEMBL5042524, “Discovery of Novel Histone Deacetylase 6 (HDAC6) Inhibitors with Enhanced Antitumor Immunity of Anti-PD-L1 Immunotherapy in Melanoma” (J Med Chem, 2022)

Legend:
[1] = target: Histone deacetylase 3 (Homo sapiens, UniProt O15379); assay: Inhibition of recombinant human His-tagged HDAC3 expressed in baculovirus insect cells using Ac-Leu-Gly-Lys (Ac)-AMC as substrate preincubated for 5 mins followed by substrate addition and measured after 30 mins by fluorescence microtiter plate reader assay
[2] = target: Histone deacetylase; assay: Inhibition of HDAC in human HeLa nuclear extracts using fluorometric substrate incubated for 30 mins by fluorescence plate reader analysis; type: cell-based
[3] = target: T1, Protein deacetylase HDAC6 (Homo sapiens, UniProt Q9UBN7); assay: Inhibition of recombinant human N-terminal GST tagged HDAC6 expressed in baculovirus infected Sf9 insect cells using Ac-Leu-Gly-Lys (Ac)-AMC as substrate preincubated for 5 mins followed by substrate addition and measured after 30 mins by fluorescence microtiter plate reader assay
T1 sequence (Q9UBN7 whole entry): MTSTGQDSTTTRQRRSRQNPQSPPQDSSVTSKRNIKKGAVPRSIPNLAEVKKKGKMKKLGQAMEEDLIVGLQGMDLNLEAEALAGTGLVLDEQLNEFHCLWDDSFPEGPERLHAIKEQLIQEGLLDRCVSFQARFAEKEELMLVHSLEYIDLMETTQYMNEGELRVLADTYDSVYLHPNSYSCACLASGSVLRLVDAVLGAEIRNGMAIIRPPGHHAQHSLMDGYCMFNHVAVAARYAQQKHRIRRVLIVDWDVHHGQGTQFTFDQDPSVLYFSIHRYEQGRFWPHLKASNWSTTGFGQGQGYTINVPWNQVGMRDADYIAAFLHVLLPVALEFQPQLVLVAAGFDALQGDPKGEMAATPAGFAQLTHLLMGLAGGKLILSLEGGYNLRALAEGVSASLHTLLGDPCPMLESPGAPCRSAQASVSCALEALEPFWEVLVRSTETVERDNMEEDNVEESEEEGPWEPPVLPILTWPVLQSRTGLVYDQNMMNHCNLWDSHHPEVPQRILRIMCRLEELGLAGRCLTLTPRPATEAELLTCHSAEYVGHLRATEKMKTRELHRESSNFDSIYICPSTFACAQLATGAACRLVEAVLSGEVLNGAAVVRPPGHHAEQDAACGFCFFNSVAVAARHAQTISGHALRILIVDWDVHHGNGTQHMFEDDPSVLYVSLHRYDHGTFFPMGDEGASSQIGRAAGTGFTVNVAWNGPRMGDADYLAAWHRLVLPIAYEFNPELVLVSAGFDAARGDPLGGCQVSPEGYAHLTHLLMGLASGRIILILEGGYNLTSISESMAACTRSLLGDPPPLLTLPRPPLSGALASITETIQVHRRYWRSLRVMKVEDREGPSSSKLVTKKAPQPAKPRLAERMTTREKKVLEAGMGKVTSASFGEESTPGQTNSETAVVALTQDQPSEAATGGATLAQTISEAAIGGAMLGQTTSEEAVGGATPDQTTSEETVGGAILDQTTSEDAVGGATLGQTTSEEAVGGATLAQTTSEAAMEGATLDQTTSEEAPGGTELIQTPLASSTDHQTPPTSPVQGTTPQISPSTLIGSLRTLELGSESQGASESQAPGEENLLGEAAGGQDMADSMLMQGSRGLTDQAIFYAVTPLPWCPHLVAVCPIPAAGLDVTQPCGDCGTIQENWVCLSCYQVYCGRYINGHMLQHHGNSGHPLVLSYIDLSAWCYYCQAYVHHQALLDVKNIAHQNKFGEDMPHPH

[4] = target: T2, Histone deacetylase 8 (Homo sapiens, UniProt Q9BY41); assay: Inhibition of full length recombinant human C-terminal His tagged HDAC8 expressed in baculovirus infected Sf9 insect cells using Ac-Leu-GlyLys (Tfa)-AMC as substrate preincubated for 5 mins followed by substrate addition and measured after 30 mins by fluorescence microtiter plate reader assay
T2 sequence (Q9BY41 whole entry): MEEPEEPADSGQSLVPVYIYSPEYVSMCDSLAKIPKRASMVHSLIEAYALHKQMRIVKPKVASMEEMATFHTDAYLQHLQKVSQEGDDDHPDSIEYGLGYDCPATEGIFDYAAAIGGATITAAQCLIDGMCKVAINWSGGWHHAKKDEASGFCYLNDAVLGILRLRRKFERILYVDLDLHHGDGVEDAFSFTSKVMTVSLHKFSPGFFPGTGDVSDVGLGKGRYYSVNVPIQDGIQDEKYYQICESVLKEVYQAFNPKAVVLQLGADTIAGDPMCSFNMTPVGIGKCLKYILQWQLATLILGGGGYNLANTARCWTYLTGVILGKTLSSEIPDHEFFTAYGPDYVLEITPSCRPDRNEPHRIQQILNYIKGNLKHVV

[5] = Antiproliferative activity against human YCC3/7 cells assessed as cell growth inhibition; type: functional, cell-based
[6] = system: MCF7; assay: cells; type: functional, cell-based; conditions: Homo sapiens, MCF7, 48 h
Description: Antiproliferative activity against human MCF7 cells assessed as inhibition of cell proliferation measured after 48 hrs by MTT assay

[7] = Cytotoxicity against human Jurkat cells assessed as reduction in cell viability incubated for 72 hrs by CCK-8 assay
[8] = Antiproliferative activity against human YCC-11 cells assessed as cell growth inhibition; type: functional, cell-based
[9] = system: B16-F10; assay: cells; type: functional, cell-based; conditions: Mus musculus, B16-F10, 48 h
Description: Antiproliferative activity against mouse B16-F10 cells assessed as inhibition of cell proliferation measured after 48 hrs by MTT assay

[10] = target: Histone deacetylase 1 (Homo sapiens, UniProt Q13547); assay: Inhibition of recombinant human HDAC1 expressed in baculovirus expression system using Ac-Leu-Gly-Lys (Ac)-AMC as substrate preincubated for 5 mins followed by substrate addition and measured after 30 mins by fluorescence microtiter plate reader assay
[11] = system: A549; assay: cells; type: functional, cell-based; conditions: Homo sapiens, A549, 48 h
Description: Antiproliferative activity against human A549 cells assessed as inhibition of cell proliferation measured after 48 hrs by MTT assay

[12] = system: HCT-116; assay: cells; type: functional, cell-based; conditions: Homo sapiens, HCT-116, 48 h
Description: Antiproliferative activity against human HCT-116 cells assessed as inhibition of cell proliferation measured after 48 hrs by MTT assay

Chain of Histone deacetylase 3 (O15379 whole entry): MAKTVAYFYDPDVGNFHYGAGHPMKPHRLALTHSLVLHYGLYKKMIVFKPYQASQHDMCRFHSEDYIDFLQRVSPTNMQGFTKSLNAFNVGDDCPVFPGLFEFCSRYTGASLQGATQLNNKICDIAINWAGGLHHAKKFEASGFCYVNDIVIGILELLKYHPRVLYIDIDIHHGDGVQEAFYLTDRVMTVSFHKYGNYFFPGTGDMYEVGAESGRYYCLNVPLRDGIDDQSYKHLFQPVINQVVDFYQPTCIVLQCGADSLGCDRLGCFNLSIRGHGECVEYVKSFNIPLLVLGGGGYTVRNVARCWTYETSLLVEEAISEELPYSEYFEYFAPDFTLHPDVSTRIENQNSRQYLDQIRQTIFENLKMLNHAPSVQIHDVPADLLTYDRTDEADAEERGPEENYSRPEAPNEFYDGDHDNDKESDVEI
Chain of Histone deacetylase 1 (Q13547 whole entry): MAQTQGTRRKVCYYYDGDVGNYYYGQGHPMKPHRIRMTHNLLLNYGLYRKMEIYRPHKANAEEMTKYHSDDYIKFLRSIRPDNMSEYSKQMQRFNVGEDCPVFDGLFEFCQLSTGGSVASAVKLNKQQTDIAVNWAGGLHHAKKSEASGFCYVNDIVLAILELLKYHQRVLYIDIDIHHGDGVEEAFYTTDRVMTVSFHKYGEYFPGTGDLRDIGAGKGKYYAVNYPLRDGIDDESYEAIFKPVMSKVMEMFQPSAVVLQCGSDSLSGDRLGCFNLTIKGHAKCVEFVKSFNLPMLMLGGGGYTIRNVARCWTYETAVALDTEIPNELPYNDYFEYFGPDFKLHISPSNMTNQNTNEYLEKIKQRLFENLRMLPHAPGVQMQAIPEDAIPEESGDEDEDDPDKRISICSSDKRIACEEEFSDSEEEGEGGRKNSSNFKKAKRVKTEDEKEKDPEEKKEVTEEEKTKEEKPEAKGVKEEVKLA

SMILES | IC50 [1] | IC50 [2] | IC50 [3] | IC50 [4] | IC50 [5] | IC50 [6] | IC50 at 72 h [7] | IC50 [8] | IC50 [9] | IC50 [10] | IC50 [11] | IC50 [12]
O=C(CCCCCCNC(=O)c1cnc(-c2ccc(OC(F)(F)F)cc2)s1)NO | 8.07 µM | 0.7 µM | 0.71 µM | – | – | – | – | – | – | – | – | –
COc1ccccc1-c1ncc(C(=O)NCCCCCCC(=O)NO)s1 | 6.49 µM | 0.27 µM | 0.65 µM | 10.2 µM | 6.68 µM | 1.93 µM | 0.35 µM | 2.69 µM | > 10 µM | 5.13 µM | 5.04 µM | 0.91 µM
COc1ccc(-c2ncc(C(=O)NCCCCCC(=O)NO)s2)c(OC)c1 | 12.4 µM | 0.35 µM | 0.076 µM | 19.8 µM | 8.73 µM | 2.81 µM | 1.72 µM | 6.52 µM | 2.94 µM | 11.2 µM | 6.71 µM | 2.19 µM
COc1ccc(-c2ncc(/C=C/C(=O)NO)s2)c(OC)c1OC | 6.23 µM | 0.11 µM | 1.09 µM | 2.56 µM | 8.17 µM | 4.78 µM | 0.59 µM | 3.77 µM | > 10 µM | 5.03 µM | > 10 µM | 3.27 µM
Nc1ccccc1NC(=O)/C=C/c1cnc(-c2ccc3cc[nH]c3c2)s1 | 2.03 µM | 0.63 µM | > 10 µM | – | – | – | – | – | – | – | – | –
O=C(/C=C/c1cnc(-c2ccc3c(c2)OCCO3)s1)NO | > 10 µM | 0.68 µM | 0.77 µM | – | – | – | – | – | – | – | – | –
COc1cccc(-c2ncc(/C=C/C(=O)NO)s2)c1 | – | 0.66 µM | – | – | – | – | – | – | – | – | – | –
CC(C)(C)OC(=O)Nc1ccc(-c2ncc(C(=O)NCCCCCCC(=O)NO)s2)cc1 | 5.88 µM | 0.29 µM | 0.067 µM | 5.22 µM | 10.1 µM | > 10 µM | 1.34 µM | 2.09 µM | > 10 µM | 9.32 µM | > 10 µM | 2.88 µM
COc1cc(-c2ncc(/C=C/C(=O)Nc3ccccc3N)s2)cc(OC)c1OC | 2.98 µM | 0.08 µM | 9.33 µM | 14.2 µM | 3.03 µM | 2.54 µM | 0.58 µM | 1.65 µM | 7.62 µM | 9.79 µM | > 10 µM | 1.65 µM
COc1ccc(-c2ncc(/C=C/C(=O)Nc3ccccc3N)s2)cc1OC | 2.22 µM | 0.53 µM | 8.81 µM | 11.5 µM | 6.28 µM | 3.05 µM | 0.34 µM | 4.59 µM | 6.37 µM | 10.4 µM | 5.24 µM | 1.8 µM
O=C(/C=C/c1cnc(-c2ccc(F)cc2F)s1)NO | – | 0.94 µM | – | – | – | – | – | – | – | – | – | –
O=C(CCCCCCNC(=O)c1cnc(-c2ccc(Cl)cc2)s1)NO | – | 0.96 µM | – | – | – | – | – | – | – | – | – | –
COc1ccc(-c2ncc(C(=O)NCCCCCCC(=O)NO)s2)cc1 | > 10 µM | 0.71 µM | 0.61 µM | – | – | – | – | – | – | – | – | –
COc1cc(OC)cc(-c2ncc(/C=C/C(=O)NO)s2)c1 | > 10 µM | 0.72 µM | 0.94 µM | – | – | – | – | – | – | – | – | –
COc1cccc(-c2ncc(/C=C/C(=O)Nc3ccccc3N)s2)c1 | 4.87 µM | 0.58 µM | 9.53 µM | 13.4 µM | 9.91 µM | 6.05 µM | 0.56 µM | 8.56 µM | > 10 µM | 13.5 µM | 7.64 µM | 3.91 µM
COc1ccc(-c2ncc(/C=C/C(=O)Nc3ccccc3N)s2)cc1 | 1.79 µM | 0.71 µM | > 10 µM | – | – | – | – | – | – | – | – | –

SMILES | IC50 [1] | IC50 [2] | IC50 [3] | IC50 [4] | IC50 [5] | IC50 [6] | IC50 at 72 h [7] | IC50 [8] | IC50 [9] | IC50 [10] | IC50 [11] | IC50 [12]
COc1ccc(-c2ncc(C(=O)NCCCC(=O)NO)s2)c(OC)c1 | – | 0.73 µM | – | – | – | – | – | – | – | – | – | –
Cc1ccc(-c2ncc(/C=C/C(=O)Nc3ccccc3N)s2)cc1 | 1.03 µM | 0.66 µM | > 10 µM | – | – | – | – | – | – | – | – | –
COc1ccc(-c2ncc(C(=O)NCCCCC(=O)NO)s2)c(OC)c1 | 9.91 µM | 0.69 µM | 0.62 µM | – | – | – | – | – | – | – | – | –
Cc1cccc(-c2ncc(/C=C/C(=O)Nc3ccccc3N)s2)c1 | – | 0.81 µM | – | – | – | – | – | – | – | – | – | –
COc1ccc(-c2ncc(/C=C/C(=O)NO)s2)cc1 | 5.11 µM | 0.13 µM | 0.91 µM | 3.74 µM | 4.21 µM | 5.36 µM | 0.74 µM | 3.07 µM | > 10 µM | 4.34 µM | > 10 µM | 4.12 µM
O=C(CCCCCCNC(=O)c1cnc(-c2ccc(Oc3ccccc3)cc2)s1)NO | – | 0.8 µM | – | – | – | – | – | – | – | – | – | –
O=C(/C=C/c1cnc(-c2ccc3c(c2)OCO3)s1)NO | – | 0.89 µM | – | – | – | – | – | – | – | – | – | –
Nc1ccccc1NC(=O)c1ccc(CNC(=O)OCc2cccnc2)cc1 [ENTINOSTAT] | – | – | – | – | 12.9 µM | – | – | 5.53 µM | – | – | – | –
COc1cccc(-c2ncc(C(=O)NCCCCCCC(=O)NO)s2)c1 | 9.27 µM | 0.44 µM | 0.59 µM | 15.2 µM | 1.56 µM | 1.9 µM | 0.33 µM | 1.3 µM | 3.52 µM | 3.93 µM | 6.03 µM | 0.93 µM
COc1cc(OC)cc(-c2ncc(C(=O)NCCCCCCC(=O)NO)s2)c1 | 9.09 µM | 0.79 µM | 0.76 µM | – | – | – | – | – | – | – | – | –
COc1cc(-c2ncc(C(=O)NCCCCCCC(=O)NO)s2)cc(OC)c1OC | > 10 µM | 0.67 µM | 0.8 µM | – | – | – | – | – | – | – | – | –
O=C(CCCCCCNC(=O)c1cnc(-c2ccc(F)cc2)s1)NO | – | 1.02 µM | – | – | – | – | – | – | – | – | – | –
COc1cc(-c2ncc(/C=C/C(=O)NO)s2)cc(OC)c1OC | 7.66 µM | 0.1 µM | 2.1 µM | 2.22 µM | 5.18 µM | 1.3 µM | 0.36 µM | 4.8 µM | 5.09 µM | 3.21 µM | 3.08 µM | 1.82 µM
COc1ccc(-c2ncc(/C=C/C(=O)Nc3ccccc3N)s2)c(OC)c1OC | 1.55 µM | 0.63 µM | > 10 µM | – | – | – | – | – | – | – | – | –
O=C(/C=C/c1cnc(-c2ccc(N3CCOCC3)cc2)s1)NO | > 10 µM | 0.55 µM | 0.97 µM | – | – | – | – | – | – | – | – | –
